Data set [1] is described as follows: In vitro atrazine release from nanoformulations (dialysis). It counts as physicochemical. The note with it: after 94 hours, DI water, dialysis 12 kDa. The protocol: B) In vitro atrazine release from nanoformulations: A dialysis tubing (MWCO 12 kDa, Sigma-Aldrich, St. Louis, USA) was taken with nfATZ (2 mg), where the total amount of ATZ loaded was 200 μg. In another dialysis tubing, 200 μg of ATZ (bulk form) dispersed in 2 ml of distilled water (DW) with 0.1% w/v sodium azide was taken. These dialysis bags were kept in 18 mL of DW containing sodium azide, and the release studies were done at 37° C. in a shaker bath (SW23, Julabo, Seelbach, Germany) at 50 rpm. At regular intervals, 1 mL of DW was withdrawn and replaced with 1 mL of fresh DW to maintain the sink conditions. The withdrawn DW was analyzed for the amount of ATZ released using a UV-visible spectrophotometer at λmax of 222 nm. […] After 94 hours of release studies, 60% of ATZ was released in the case of plain ATZ, while 22% of ATZ was released from the nfATZ. […] From this observation, it is noted that the another […] of release from the nano-formulation can extend up to 30 days. From these studies, inventors concluded that the nanoformulations is the best choice to control the weeds for an extended period, which can be manipulated as desired by changing concentration of EC and ATZ.

Data set [2] is described as follows: Thermal gravimetric analysis (TGA). The format is physicochemical. Conditions: TGA under N2, 10° C. min^−1. The source says: A) Characterization: The morphology and size distribution of the nf and nfATZ were observed using a field emission scanning electron microscope (FE-SEM; Nova NanoSEM 450, FEI, Hillsboro, USA) and a high-resolution transmission electron microscope (HR-TEM; Tecnai TF20, 200 kV FEG, FEI, Hillsboro, USA). The ζ-potential and particle size distribution of nf and nfATZ were estimated using a PALS zeta potential analyzer (Brookhaven Instruments, Holtsville, USA). The material structural analysis was determined using a Fourier transform infrared spectrometer (FTIR; PerkinElmer, Waltham, USA) and X-ray diffractometer (XRD; PANalytical X'Pert PRO, Malvern Panalytical, Malvern, UK). The interaction between ATZ and EC was analyzed using differential scanning calorimetry (DSC). […]
The nf depicts a shift in Tg from 121° C. to 131º° C. […] The nfATZ recorded a Tg at 125° C.; a shift in the Tg from 131° C. […] Two-stage decomposition temperatures were recorded for pristine EC, 50-95° C., due to loss of moisture (weight loss, 2.9%) and 150-380° C. due to fragmentation of chemical bonds (weight loss, 85%). […] Further, it is observed that nfATZ recorded a broad first derivative peak for the weight loss, which may be due to the merging of two first derivative peaks, one for ATZ and the other for EC.

Structures are written as SMILES.

For the molecule `CCNc1nc(Cl)nc(NC(C)C)n1` [plain ATZ, Atrazine], the ATZ released in data set [1] came to 60%. For the same molecule, the maximum degradation temperature in data set [2] was found to be 230 °C.
